Measurements as given in patent US20250164476A1, “COLORIMETRIC ASSAY USING DITHIOLATE-GRAFTED NANOPARTICLES FOR HIGH-THROUGHPUT SCREENING OF CRYOPROTECTANTS” (The Government of the United States of America, as …, priority 2023, published 2025).

How the values were obtained:
[1] = Ligand effect on the freezing of AuNP (96-well serial dilution); settings: for appearance of AuNP samples in presence of test ligand: before freezing, 10 nM AuNP in 1×PBS (FIG. 5A); for type of AuNP aggregation on freezing: conclusion from frozen and post-thaw states; for colloidal color of AuNP in frozen state: frozen at −20° C. for 2 hours, serial dilution, ligands from 1 mM, sucrose 40% (FIG. 5B); for colloidal color / optical properties of AuNP at post-thaw state: thawed at room temperature for 30 minutes (FIG. 5C)
Procedure: In a sample well plate series (96 wells), a 2 millimolar (mM) stock solution of the test ligands was mixed with AuNP, resulting in a 1 mM AuNP-probe solution which was deposited as a highest concentration in respective top wells (using two columns or lanes of wells for each ligand), and was serially diluted by half using 2×PBS buffer for every following well. More specifically, the stock ligand concentration, 1 mM, was diluted by ½, ¼, ⅛, 1/16, 1/32, 1/64, 1/128, and 1/256 times (from top to bottom) by using 2×PBS. After finishing serial dilution of the target materials (four ligands, here), 50 microliters (μL) of 20 nM AuNP were added to each well of the well plate series to make a 10 nM AuNP-probe in 1×PBS in each well as a final concentration. […] See the resulting sample well plate series in FIG. 5A.
FIG. 5B is an image of the 96 well plate series of FIG. 5A after freezing. Specifically, the 96 well plate series was frozen at −20° C. for 2 hours, resulting in the frozen state of the samples depicted in FIG. 5B.
FIG. 5C is an image of the 96 well plate series of FIG. 5B after thawing. More specifically, the 96 well plate series of FIG. 5B was thawed at room temperature for 30 minutes, resulting the post-thaw state of FIG. 5C.

[2] = sucrose-based sandwich assay
Procedure: More specifically, FIGS. 10A-10F show respective anti-icing samples tested including: sucrose 40% (as a negative control), AFP (RiAFP) 0.12 mg/ml, BSA 0.12 mg/ml, 10K PVA 0.12 mg/ml, 10K PVA 1 mg/ml, and zirconium acetate (ZrN) 40 mg/ml. The buffer utilized was 0.5×PBS, with the exception of ZrN which was in 80 mM HCl. For the IRI assay, each sample was prepared with 40% sucrose as a final concentration. The following procedures were performed for each sample. Initially, 2 μL of sample was dropped between two round coverslips (borosilicate, d=1.3˜1.5 cm) and sealed with grease. The sample was then inserted into a Linkam® Scientific cryostage with liquid nitrogen (LN2) control. The sample was first frozen at −50° C. for 1 min, then the temperature was increased to −20° C. at a rate of 10° C./min, followed by a slow increase in temperature to −10° C. at a speed of 1° C./min. A sample image was then taken after annealed at −10° C. for 30 minutes without interruption.

[3] = AuNP-TA/NTA probe colorimetric HTS titration assay for anti-icing activity; settings: FIG. 8C; 0.2 mg/ml serially diluted, 1×PBS, frozen at −20° C. for 2 hours, thawed
Procedure: FIG. 6A is an image of a 96 well plate series titration test, utilizing an AuNP-TA/NTA probe in different test solutions at room temperature. From top to bottom there are six different testing targets: (1) AFP 0.3 mg/ml, (2) polyvinyl alcohol (PVA) 10K 0.3%, (3) bovine serum albumin (BSA) 0.3 mg/ml, (4) ethylene glycol (EG) 50%, (5) glycerol (Gly) 50%, and (6) 80 mg/ml zirconium acetate (ZrA). The buffer was 1×PBS except for the last sample ZrA, which was in 40 mM HCl (because ZrA is only active in acidic conditions). The target samples were diluted in rows by ½, ¼, ⅛, 1/16, 1/32, 1/64, 1/128, 1/256, 1/512, 1/1024, 1/2048 and 1/4096 times (from left to right) using 2×PBS or 80 mM HCl (for ZrA). Next, 50 μL of target materials were mixed with 50 μL of 20 nM AuNP-probe to make a final 1×PBS, or 40 mM HCl for the last sample, and 10 nM of AuNP probe in each well. […]
In general, titration is a common laboratory method for quantitative chemical analysis to determine the concentration of an identified analyte in terms of activity. […] Thus, it is necessary to obtain a quantified value or parameter in order to compare different test results in different conditions. […]

Molecule | appearance of AuNP samples in presence of test ligand [1] | type of AuNP aggregation on freezing [1] | colloidal color of AuNP in frozen state [1] | colloidal color / optical properties of AuNP at post-thaw state [1] | anti-icing effect in traditional IRI test [2] | anti-icing effects from concentration-dependent color changes [3]
O=C(O)CCCCC1CCSS1 (stereo not shown) [TA, thioctic acid] | well-dispersed without any color changes | irreversible aggregation | turned translucent at the highest concentrations | remained pale at the highest concentration |  | 
bovine serum albumin [BSA] |  |  |  |  | confirmed | low-level anti-icing effects

Now from value to molecule, other results behind:

appearance of AuNP samples in presence of test ligand [1] | Molecule | type of AuNP aggregation on freezing [1] | colloidal color of AuNP in frozen state [1] | colloidal color / optical properties of AuNP at post-thaw state [1] | anti-icing effect in traditional IRI test [2] | anti-icing effects from concentration-dependent color changes [3]
well-dispersed without any color changes | OC[C@H]1O[C@@](CO)(O[C@H]2O[C@H](CO)[C@@H](O)[C@H](O)[C@H]2O)[C@@H](O)[C@@H]1O [sucrose] |  | changed from the original red (top well, at the highest concentration) to purple, and finally to pale purple |  |  | 
well-dispersed without any color changes | nitrilotriacetic acid modified thioctic acid [TA-NTA] | reversible aggregation | turned translucent at the highest concentrations | almost fully recovered their intrinsic optical properties |  | 
well-dispersed without any color changes | sulfonate modified thioctic acid [TA-SO3] | reversible aggregation | red at the highest concentration without any aggregation | almost fully recovered their intrinsic optical properties |  | 
